{
  "source": "patent US20050176826A1",
  "about": "“Use of asc-1 inhibitors to treat neurological and psychiatric disorders” (H. Lundbeck A/S, priority 2002, published 2005)",
  "key": {"serotonin (5-HT) uptake": {"target": "T1, serotonin (5-HT) uptake (Rattus norvegicus, UniProt P31652)", "T1 construct": "from tissue; host or cells: synaptosomes from whole rat brain excluding cerebellum", "T1 sequence (P31652 whole entry)": "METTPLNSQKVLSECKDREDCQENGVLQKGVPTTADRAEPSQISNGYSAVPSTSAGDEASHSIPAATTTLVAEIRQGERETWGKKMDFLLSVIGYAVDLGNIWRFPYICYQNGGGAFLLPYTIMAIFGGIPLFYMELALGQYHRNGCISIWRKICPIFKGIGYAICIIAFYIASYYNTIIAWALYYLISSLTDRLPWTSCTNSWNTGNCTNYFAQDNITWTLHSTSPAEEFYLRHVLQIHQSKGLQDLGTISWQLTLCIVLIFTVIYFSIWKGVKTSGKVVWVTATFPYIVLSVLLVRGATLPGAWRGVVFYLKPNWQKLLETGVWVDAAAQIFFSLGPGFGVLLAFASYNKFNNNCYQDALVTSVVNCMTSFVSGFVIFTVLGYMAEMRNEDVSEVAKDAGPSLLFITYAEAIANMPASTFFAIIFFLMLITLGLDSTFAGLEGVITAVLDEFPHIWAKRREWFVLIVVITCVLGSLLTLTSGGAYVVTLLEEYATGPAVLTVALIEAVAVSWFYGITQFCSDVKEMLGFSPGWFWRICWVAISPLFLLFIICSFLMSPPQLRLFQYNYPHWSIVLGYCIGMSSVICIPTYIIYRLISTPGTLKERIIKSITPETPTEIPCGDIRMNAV", "test": "[3H]serotonin uptake into rat brain synaptosomes", "format": "biochemical", "experimental": "(§1) Inhibition of serotonin (5-HT), dopamine (DA) and noradrenaline (NA) uptake in vitro was measured in rat brain synaptosomes using a modification of a previously described protocol (Bøgesø et al., J Med Chem 1985, 28, 1817-1828). In brief, tritium labelled amines were used to measure uptake into synaptosomes from whole rat brain (excluding cerebellum) ([^3H]serotonin), rat striatal synaptosomes ([^3H]dopamine) or into rat cortical synaptosomes [^3H]noradrenalin. The dissected rat brain regions were homogenized in 0.40 M sucrose supplemented with 1 mM nialamid and centrifuged at 1000×g for 10 min. The supernatants were further centrifuged for 30 min at 20.000×g, 4° C. and resuspended in Krebs-Ringer buffer, pH 7.4 supplemented with 0.2 g/l ascorbic acid. Test compounds and membranes were added in 96 well plates and the incubation was started by adding either 10 nM [^3H]serotonin, 12.5 nM [^3H]dopamine or 10 nM [^3H]noradrenalin for 15 min at 37° C. except for [^3 H]dopamine uptake (5 min at 20° C.). Non-specific uptake was defined as uptake in the presence of 10 μM citalopram, 100 μM benttropin or 20 μM talsupram, respectively and accounted for 5-10% of total uptake. Samples were filtered over Whatman GF/C filters and the IC50's were estimated using non-linear regression analysis from at least 8 points dose-response curves with triplicate determinations."}, "[1]": {"target": "T2, D-serine uptake in rat cerebellar synaptosomes (Rattus norvegicus, UniProt P63116)", "T2 construct": "from tissue; host or cells: rat cerebellar synaptosomes", "T2 sequence (P63116 1-530)": "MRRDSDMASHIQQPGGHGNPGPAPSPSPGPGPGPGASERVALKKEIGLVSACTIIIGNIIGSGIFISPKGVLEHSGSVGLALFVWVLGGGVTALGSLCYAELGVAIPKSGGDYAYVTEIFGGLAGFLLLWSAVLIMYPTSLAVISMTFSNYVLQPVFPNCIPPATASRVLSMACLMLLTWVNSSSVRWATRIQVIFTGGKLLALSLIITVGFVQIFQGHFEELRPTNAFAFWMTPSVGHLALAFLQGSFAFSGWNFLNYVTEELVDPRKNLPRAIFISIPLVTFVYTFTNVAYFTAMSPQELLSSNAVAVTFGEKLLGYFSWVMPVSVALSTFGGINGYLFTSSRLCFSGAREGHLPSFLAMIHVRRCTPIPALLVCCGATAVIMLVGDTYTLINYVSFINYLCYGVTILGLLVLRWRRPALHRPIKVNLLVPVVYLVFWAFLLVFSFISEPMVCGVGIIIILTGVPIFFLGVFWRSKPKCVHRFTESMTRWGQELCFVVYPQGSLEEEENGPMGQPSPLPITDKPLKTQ", "T2 sequence (Q794F9 1-527 partner)": "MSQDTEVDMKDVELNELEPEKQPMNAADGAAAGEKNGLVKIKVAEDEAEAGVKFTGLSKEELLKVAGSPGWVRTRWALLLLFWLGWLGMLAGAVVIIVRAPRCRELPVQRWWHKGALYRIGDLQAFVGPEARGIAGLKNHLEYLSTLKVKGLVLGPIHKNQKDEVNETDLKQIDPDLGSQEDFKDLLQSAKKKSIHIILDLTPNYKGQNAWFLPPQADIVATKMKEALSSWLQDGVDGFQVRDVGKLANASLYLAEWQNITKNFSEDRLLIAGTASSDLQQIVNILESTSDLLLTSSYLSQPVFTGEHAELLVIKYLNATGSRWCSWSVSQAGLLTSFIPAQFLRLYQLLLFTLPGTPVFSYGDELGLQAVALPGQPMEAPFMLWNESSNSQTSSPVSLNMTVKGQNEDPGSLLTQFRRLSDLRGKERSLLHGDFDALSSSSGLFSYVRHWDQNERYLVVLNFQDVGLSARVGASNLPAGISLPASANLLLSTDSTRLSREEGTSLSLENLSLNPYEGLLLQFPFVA", "test": "[3H]D-serine uptake in rat cerebellar synaptosomes", "format": "biochemical"}, "System A transporters": {"test_system": "System A transporters", "test": "[3H]AIB transport into cultured rat hepatocytes (Bracy et al.)", "format": "cell-based", "details": "corresponding to 81% inhibition at 5 mM"}, "dopamine (DA) uptake": {"target": "T3, dopamine (DA) uptake (Rattus norvegicus, UniProt P23977)", "T3 construct": "from tissue; host or cells: rat striatal synaptosomes", "T3 sequence (P23977 whole entry)": "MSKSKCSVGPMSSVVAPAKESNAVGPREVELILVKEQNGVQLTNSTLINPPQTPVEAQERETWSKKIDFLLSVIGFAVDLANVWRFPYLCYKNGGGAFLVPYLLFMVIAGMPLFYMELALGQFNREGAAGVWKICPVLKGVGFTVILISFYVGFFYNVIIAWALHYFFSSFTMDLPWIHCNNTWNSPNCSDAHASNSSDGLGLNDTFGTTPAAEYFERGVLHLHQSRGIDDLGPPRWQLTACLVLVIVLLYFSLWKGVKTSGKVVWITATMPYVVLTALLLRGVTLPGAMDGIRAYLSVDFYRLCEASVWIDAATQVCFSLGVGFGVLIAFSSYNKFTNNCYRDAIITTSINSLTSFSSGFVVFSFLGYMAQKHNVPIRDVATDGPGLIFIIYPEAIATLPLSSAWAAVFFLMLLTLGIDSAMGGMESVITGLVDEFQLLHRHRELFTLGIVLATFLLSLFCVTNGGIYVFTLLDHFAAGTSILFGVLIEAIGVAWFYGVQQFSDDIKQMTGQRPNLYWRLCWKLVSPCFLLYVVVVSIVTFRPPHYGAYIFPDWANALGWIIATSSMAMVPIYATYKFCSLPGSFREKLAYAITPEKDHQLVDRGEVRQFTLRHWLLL", "test": "[3H]dopamine uptake into rat striatal synaptosomes", "format": "biochemical", "experimental": "as §1"}, "human asc-1": {"target": "T4, human asc-1 (Homo sapiens, UniProt Q9NS82)", "T4 construct": "expressed in transfected cells; host or cells: HEK293 (ATCC CRL 1573), transient, vector pCI/neo", "T4 sequence (Q9NS82 1-523)": "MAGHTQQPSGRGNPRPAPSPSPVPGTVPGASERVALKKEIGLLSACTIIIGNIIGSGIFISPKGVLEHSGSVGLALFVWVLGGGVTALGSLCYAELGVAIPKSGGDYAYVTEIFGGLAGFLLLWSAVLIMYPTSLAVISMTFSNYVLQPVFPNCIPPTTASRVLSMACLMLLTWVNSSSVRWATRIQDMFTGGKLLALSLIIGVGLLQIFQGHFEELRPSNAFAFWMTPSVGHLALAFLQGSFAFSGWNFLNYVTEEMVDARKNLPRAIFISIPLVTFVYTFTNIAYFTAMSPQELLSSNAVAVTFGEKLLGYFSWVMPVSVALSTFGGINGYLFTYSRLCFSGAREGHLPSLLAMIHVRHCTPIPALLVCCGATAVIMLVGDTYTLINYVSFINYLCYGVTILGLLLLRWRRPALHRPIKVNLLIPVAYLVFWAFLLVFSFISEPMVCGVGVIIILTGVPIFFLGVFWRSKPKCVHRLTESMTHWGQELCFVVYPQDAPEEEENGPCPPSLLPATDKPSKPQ", "test": "[3H]D-serine uptake into HEK293 cells expressing human asc-1", "format": "cell-based", "experimental": "Uptake was determined 2-4 days after the transfection.\nInto cortical membranes: Cortex from male Wistar rats (150-200 g) was homogenized in 0.40 M sucrose and centrifuged at 1000×g for 10 min. […] Test compounds and tissue (1 mg orig. tissue/well) were added to 96 well plates and incubated with [^3H]-D-serine (specific activity=26.8 Ci/mmol, PerkinElmer, Cambridge, U.K.) (100 nM final concentration) for 5 min at 25° C. Samples were filtered on Unifilter GF/B glass fiber (Packard Biosciences, Meriden, Conn., USA) and washed with 3×0.25 mL assay buffer. Measurements of [^3H]-D-serine uptake into whole HEK293 cells expressing human asc-1 were performed in 96 well plates with similar conditions except that the cells were incubated for 15 min with radioligand and washed by dipping twice in cold assay buffer following incubation with radioligand. Accumulated radioactivity was extracted from the cells by adding 200 μL scintillation fluid/well (Ultima Gold, Packard Biosciences) and the plates were counted in a Microplates Scintillation Counter (Packard Biosciences). The D-serine uptake in samples containing test compounds was compared to controls without added compound or controls where transport via the asc-1 was inhibited by addition of e.g. 30 mM L-alanine."}},
  "data": [
    {"smiles": "CSCC(N)C(=O)O", "note": "(stereo in doubt) [(S)-methyl-L-cysteine]", "values": [
      {"measurement": "Ki", "setting": "serotonin (5-HT) uptake", "result": "> 1", "unit": "mM"},
      {"measurement": "inhibition of D-serine uptake in rat cerebellar synaptosomes (in words)", "setting": "[1]", "result": "potent and selective inhibitor"},
      {"measurement": "IC50", "setting": "System A transporters", "result": "~1.2", "unit": "mM"},
      {"measurement": "Ki", "setting": "dopamine (DA) uptake", "result": "> 1", "unit": "mM"},
      {"measurement": "Ki", "setting": "human asc-1", "result": "62 ± 15", "unit": "µM"}
    ]}
  ]
}
